SMILES strings stand for the structures. Activity calls are given as the source filed them.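 Rule for the calls: active = at least 15% of cells MAC1 differentiation marker positive at top dose, with half-maximal concentration under 10 µM; inactive = the rest.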

Tested on in one assay: not listed separately
As to the kind of experiment: MAC1 induction in THP1 leukemia cells – cell-based, MAC1 flow cytometry, set 1, SAR follow-up (AID 743179). Conditions: THP1 MAC1+ differentiation, flow cytometry, 4 days; at 10 µM (top of the series). A general note: A flow cytometer gives signals particle by particle.
Consider `O=C(CNC(=O)c1ccc(Cl)c(Cl)c1)N[C@@H]1CCCc2ccccc21`, for which the MAC1+ percent, differentiation is 6% (inactive).

Regarding `O=C(NC1CCOc2ccccc21)C1CCCN(C(=O)c2ccc(Cl)cc2)C1` (stereo not given), the MAC1+ percent, differentiation is 5% (inactive).

In the case of `N#Cc1ccc(C(=O)NCCC(=O)N[C@@H]2CCCc3ccccc32)cc1`, the MAC1+ percent, differentiation was 17% (inactive).

Consider `O=C(Cc1ccc(Cl)cc1)NCCC(=O)N[C@@H]1CCCc2ccccc21`, for which the MAC1+ percent, differentiation was 13% (inactive).

Take `Cc1ccc(C(=O)NCCC(=O)N[C@@H]2CCCc3ccccc32)cc1`: the MAC1+ percent, differentiation is 97% (inactive).

As for `Cc1cccc(C(=O)NCCC(=O)NC2CCCc3ccccc32)c1` (stereo not given), the MAC1+ percent, differentiation is 4% (inactive).

`CC(C)(C)OC(=O)NCCC(=O)N[C@H]1CCCc2ccccc21`: the MAC1+ percent, differentiation is 2% (inactive).

Regarding `O=C(CCNC(=O)c1ccc(F)cc1)N[C@@H]1CCCc2ccccc21`, the MAC1+ percent, differentiation was 46% (inactive).

In the case of `O=C(CCCNC(=O)c1ccc(OC(F)(F)F)cc1)N[C@@H]1CCCc2ccccc21`, the MAC1+ percent, differentiation is 3% (inactive).

Turning to `CC(NC(=O)CCNC(=O)c1ccc(Cl)cc1)c1ccc2c(c1)OCO2` (stereo not given), the MAC1+ percent, differentiation was 5% (inactive).

On to `Cc1ccc(C)c(OCCn2cc(C(=O)O)c3ccccc32)c1`, for which the MAC1+ percent, differentiation was 2% (inactive).

With `O=C(CCNC(=O)c1ccc(Cl)c(Cl)c1)N[C@@H]1CCCc2ccccc21`, the MAC1+ percent, differentiation is 109% (inactive).

Consider `O=C(CCCNC(=O)c1ccc(Cl)cc1)N[C@@H]1CCCc2ccccc21`, for which the MAC1+ percent, differentiation was 5% (inactive).

Consider `O=C(CCNC(=O)c1ccc(Cl)cc1)N[C@@H]1CCc2ccccc21`, for which the MAC1+ percent, differentiation is 21% (inactive).

Turning to `CC(C)(C)OC(=O)NCCC(=O)N[C@@H]1CCCc2ccccc21`, the MAC1+ percent, differentiation is 2% (inactive).

For the molecule `C[C@@H](NC(=O)CCNC(=O)c1ccc(Cl)cc1)c1ccccc1`, the MAC1+ percent, differentiation is 5% (inactive).

In the case of `CC(c1ccccc1)N(C)C(=O)CCNC(=O)c1ccc(Cl)cc1` (stereo not given), the MAC1+ percent, differentiation is 7% (inactive).

Turning to `O=C(CCNC(=O)c1ccc(Cl)cc1)N[C@H]1CCCc2ccccc21`, the MAC1+ percent, differentiation was 7% (inactive).

For the molecule `O=C(CNC(=O)c1ccc(Cl)cc1)N[C@@H]1CCCc2ccccc21`, the MAC1+ percent, differentiation is 4% (inactive).

Take `O=C(CNC(=O)c1ccc(C(F)(F)F)cc1)N[C@@H]1CCCc2ccccc21`: the MAC1+ percent, differentiation was 3% (inactive).

With `O=C(CNC(=O)c1ccc(OC(F)(F)F)cc1)N[C@@H]1CCCc2ccccc21`, the MAC1+ percent, differentiation was 3% (inactive).

Consider `NCCC(=O)N[C@@H]1CCCc2ccccc21`, for which the MAC1+ percent, differentiation was 1% (inactive).

On to `O=C(NC1CCc2ccccc21)C1CCCN(C(=O)c2ccc(Cl)cc2)C1` (stereo not given), for which the MAC1+ percent, differentiation is 4% (inactive).

With `O=C(O)c1ccccc1OCc1ccccc1Br`, the MAC1+ percent, differentiation was 4% (inactive).

Consider `O=C(CCNC(=O)c1ccccc1)N[C@@H]1CCCc2ccccc21`, for which the MAC1+ percent, differentiation was 2% (inactive).

Regarding `CC(NC(=O)C1CCCN(C(=O)c2ccc(Cl)cc2)C1)c1ccccc1` (stereo not given), the MAC1+ percent, differentiation was 6% (inactive).

Turning to `CC(=O)NCCC(=O)N[C@@H]1CCCc2ccccc21`, the MAC1+ percent, differentiation is 2% (inactive).

For `CC(NC(=O)CCNC(=O)c1ccc(Cl)cc1)c1ccc(F)cc1` (stereo not given), the MAC1+ percent, differentiation is 6% (inactive).

`O=C(CCCNC(=O)c1ccc(Cl)c(Cl)c1)N[C@@H]1CCCc2ccccc21`: the MAC1+ percent, differentiation is 3% (inactive).

In the case of `COc1ccccc1C(C)NC(=O)CCNC(=O)c1ccc(Cl)cc1` (stereo not given), the MAC1+ percent, differentiation is -1% (inactive).

As to `O=C(CCCNC(=O)c1ccc(C(F)(F)F)cc1)N[C@@H]1CCCc2ccccc21`, the MAC1+ percent, differentiation was 2% (inactive).

Regarding `O=C(CCNC(=O)c1ccc(Cl)cc1)NC1CCCCC1`, the MAC1+ percent, differentiation was 3% (inactive).

The test system of a further assay is THP1 MAC1+ differentiation, flow cytometry, 4 days. The description is as above.
Conditions: not given
By EC50 is commonly meant the concentration giving half of the maximal effect. Take `O=C(CCNC(=O)c1ccc2c(c1)OC(F)(F)O2)N[C@@H]1CCCc2ccccc21`: the EC50 is 4.28 µM.

Take `O=C(CCNC(=O)c1ccc(OC(F)(F)F)cc1)N[C@@H]1CCCc2ccccc21`: the EC50 is 2.07 µM.

`O=C(CCNC(=O)c1ccc(Cl)cc1)NC1CCCc2ccccc21` (stereo not given): the EC50 is 3.79 µM.

On to `O=C(CCNC(=O)c1ccc(C(F)(F)F)cc1)N[C@@H]1CCCc2ccccc21`, for which the EC50 was 2.49 µM.

Turning to `O=C(O)c1cccnc1Nc1ccc(Cl)cc1`, the EC50 was 5.49 µM.

Regarding `COc1ccc(C(=O)NCCC(=O)N[C@@H]2CCCc3ccccc32)cc1`, the EC50 was 5.16 µM.

On to `O=C(CCNC(=O)c1cccc(Cl)c1)N[C@@H]1CCCc2ccccc21`, for which the EC50 is 9.14 µM.

Regarding `O=C(CCNC(=O)c1ccc(Cl)cc1)N[C@@H]1CCCc2ccccc21`, the EC50 is 3.09 µM.

The values are drawn from PubChem BioAssay AID743179 (NMMLSC, 2013).
